Laboratory results reported in US8759363B2, “Quinazoline-based T cell proliferation inhibitors” (Yissum Research Development Company of the Hebrew …, priority 2010, dated 2014).
“Also recorded” adds a separate entry of the source.

Tests used:
PBMC and Jurkat cells = experiment: Cell cycle analysis by FACS; assay type: cell-based, human; conditions: treated cells, 0.5 μM S101
Description: The effects of the inhibition of the cell cycle were analyzed with a fluorescence-activated cell sorter (FACS). Cells were grown in 60 mm diameter plates (Nunc) and were treated with inhibitor for 12 and 24 h. After the indicated time, cells were pooled, pelleted by centrifugation, washed in phosphate-buffered saline (PBS), and fixed with cold 70% ethanol for a minimum of 12 h. Cells were re-pelleted and resuspended in PBS. 50 μg/ml of RNase A was added in the dark for 30 minutes followed by 5 μg/ml of propidium iodide for FACS analysis (Becton Dickinson FACScan).
The fraction of cells in G2 increased from 30% in the untreated cells to 50% in the treated cells.

ZAP-70 = target: T1, ZAP-70 (Homo sapiens, UniProt P43403); experiment: SLP-76 kinase assay with ZAP-70 immunoprecipitated from treated Jurkat cells; assay type: cell-based; conditions: ZAP-70 from Jurkat cells treated 16 h, recombinant SLP-76 substrate, dose-dependent
T1 construct: We also immunoprecipitated the ZAP-70 kinase from the treated/untreated cells; endogenous in cells; host or cells: Jurkat
T1 sequence (P43403 whole entry): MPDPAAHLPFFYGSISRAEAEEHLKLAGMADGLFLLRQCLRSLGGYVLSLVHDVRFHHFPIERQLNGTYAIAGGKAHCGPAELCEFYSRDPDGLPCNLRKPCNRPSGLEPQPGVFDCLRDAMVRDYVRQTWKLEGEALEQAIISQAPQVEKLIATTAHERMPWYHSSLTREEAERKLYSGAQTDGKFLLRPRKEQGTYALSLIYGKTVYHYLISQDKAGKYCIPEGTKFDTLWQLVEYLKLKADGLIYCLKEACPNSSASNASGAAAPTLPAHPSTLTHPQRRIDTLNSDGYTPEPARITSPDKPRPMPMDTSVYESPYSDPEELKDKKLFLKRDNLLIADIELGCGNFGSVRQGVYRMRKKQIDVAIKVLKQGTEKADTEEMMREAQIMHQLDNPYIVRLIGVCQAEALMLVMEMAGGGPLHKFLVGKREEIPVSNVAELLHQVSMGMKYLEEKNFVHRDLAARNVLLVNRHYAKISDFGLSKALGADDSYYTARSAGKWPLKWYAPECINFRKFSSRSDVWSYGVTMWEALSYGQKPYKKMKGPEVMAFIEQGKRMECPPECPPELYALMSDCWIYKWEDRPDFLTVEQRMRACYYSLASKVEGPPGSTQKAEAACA
Description: ZAP-70 was immunoprecipitated as described above. The immune complexes were washed 2 times with lysis buffer and 2 times with kinase buffer (50 mM Tris pH 7.5, 100 mM NaCl and 10 mM MgCl2). The beads were resuspended in 30 μl of kinase buffer containing 3 μg of His-tagged, full-length human SLP-76 protein (kindly provided by Dr. Yablonski, Technion, Israel), and the kinase reactions were initiated by the addition of 10 μl kinase buffer containing 5 μM ATP. The reactions proceeded for 15 min at 30° C. and were stopped by the addition of 6 μL EDTA (100 mM) and sample buffer. The results were analyzed by western blot [Yablonski, 1998]
Jurkat cells were treated with 2 for 16 h, and SLP-76 phosphorylation was measured by immunoprecipitation of SLP-76 protein followed by western blotting with an antibody to the phosphorylated tyrosines of the protein (FIG. 6A). We also immunoprecipitated the ZAP-70 kinase from the treated/untreated cells, and tested its ability to phosphorylate recombinant SLP-76 protein as substrate (FIG. 6B). […] Presumably the remaining SLP-76 activity was sufficient to allow IL-2 secretion.

[1] = tested on: NIH 3T3, A-431, MDA-MB-468, PANC-1, human keratinocytes; experiment: Growth of non-hematopoietic cell lines; assay type: cell-based; conditions: at high concentrations at which Jurkat and PBMC growth was strongly inhibited
Description: The inhibitor-treated cultures and controls were fixed in glutaraldehyde, 0.05% final concentration, for 10 min at room temperature. After washing, the plates were stained with 0.1% methylene blue in 0.1 M borate buffer, for 60 min at room temperature. The plates were rigorously washed to remove excess dye and dried. The dye taken up by cells was eluted in 0.1N HCl for 60 min at 37° C., and the OD of the solution was read at 620 nm. In preliminary titration experiments, linear readings were obtained for 1×10^3 to 4×10^4 cells/well.
To characterize the mode of action of 2 (S101) in more detail, we first examined whether 2 inhibits non-hematopoietic cell lines. We studied the effect of 2 on the growth of four cell lines: NIH 3T3 (mouse embryonic fibroblasts), A-431 (human vulval carcinoma cells), MDA-MB-468 (human breast carcinoma cells), and PANC-1 (human pancreatic carcinoma cells) (FIGS. 1A-B). We also tested the inhibitors on human keratinocytes. […] We also examined the effect of 2 on BrdU uptake by stimulated and non-stimulated PC-3 (human prostate cancer), HEK293 (human embryonic kidney), NIH-3T3, A375 (human malignant melanoma), and MDA-MB-231 (human breast adenocarcinoma).

[2] = tested on: IL-2 secretion by Jurkat and PBMC cells; experiment: IL-2 secretion after stimulation, ELISA; assay type: cell-based, human; conditions: anti-TCR, anti-CD28, PMA, ionomycin, ConA stimulation; up to 5 μM inhibitor
Description: Jurkat or PBMC cells were treated for 12 h with 1 μM, 0.5 μM or no inhibitor. Cells (1×10^6) were plated in 24-well plates (Nunc) and stimulated by C305 (dilution 1:500), anti-CD28 (1:100), PMA (50 ng/ml) or ionomycin (1 μM) for 12 h. Alternately, cells were stimulated for 24, 48 and 72 h in MLR. After stimulation cells were centrifuged at 130×g for 5 minutes at room temperature.
Supernatants were collected and IL-2 was assayed using the IL-2 ELISA kit (BioSource International USA, KH0022) according to the manufacturer's instructions. Absorbance was read at 450 nm in an ELISA plate reader (ELx800 BIO-TEK Instruments Inc.).
Jurkat cells, which originate from leukemia, divide with no need of exogenous IL-2 stimulation since they produce their own, whereas PBMC proliferation requires exogenous IL-2 for growth. As expected, IL-2 secretion levels were lower in cells isolated from the blood (PBMC) than in Jurkat cells (FIGS. 5A-B). We analyzed the effect of 2 on IL-2 secretion in both Jurkat (FIG. 5A) and PBMC (FIG. 5B) cells, using a variety of T cell stimuli. Cells were stimulated with an antibody to the TCR alone or in combination with anti-CD28 or phorbol 12-myristate 13-acetate (PMA). In order to bypass the TCR, we also stimulated the cells with a combination of ionomycin, PMA and anti-CD28 (FIG. 5A). […]

OT1 (resting) cells = experiment: MLR with resting control cells, resting OT1 cells; assay type: cell-based, mouse; conditions: 0.5 μM, 72 h MLR with IL-7; no inhibitor 2459
Description: The aim of this test was to determine whether 2 affects only the proliferating cells or there is a general mechanism affecting all cell numbers. For this purpose we mixed 3 cell types: […]: BALB/c, 2C and OT1; […]: CB6F1, TEA and OT2. The OT1 and OT2 are splenocytes that were isolated from OT1 and OT2 mice (Jackson Laboratories, Bar Harbor, Me.),
Thus, the ability to monitor the fate of proliferation and resting cells by FACS was enabled due to the use of the MLR described above for CD4+ and CD8+ and the addition of OT2 and OT1 splenocytes, respectively.
Proliferating cells often secrete cytokines that induce survival of neighbouring cells; since the proliferation was expected to be inhibited we added 50 ng/ml of IL-7. This concentration is sufficient to keep the cells alive, but not to induce proliferation.
Irradiated Balb splenocytes were incubated for 72 h with 2C, and OT1 splenocytes in the presence of IL-7 W/O inhibitor.
The CD4+ and CD8+ were stimulated to proliferate, whereas in the absence of specific stimuli the OT1 and OT2 cell populations were resting, and theses cells were kept alive by the administration of IL-7. […] The number of 2C and OT1 cells that were treated with 0.5 μM 2 was 286 and 1148, respectively, while the number of 2C and OT1 cells that were treated with 0.5 μM 21 (control) was 4767 and 2468, respectively. This is depicted as a bar-graph in FIG. 8C.

**Q.** Which sub-G1 population (PBMC and Jurkat cells; untreated 2%) does the source give for `COc1cc(-c2nc(Nc3ccc(C)cc3)c3ccccc3n2)cc(OC)c1OC` [Compound 2, N-p-tolyl-2-(3,4,5-trimethoxyphenyl)quinazolin-4-amine] here?
**A.** 9.5%

**Q.** And the “fraction of cells in G2” value (PBMC and Jurkat cells; untreated 30%)?
**A.** 50%

**Q.** What about the “activity of ZAP-70” value (ZAP-70) of the same compound?
**A.** inhibited

**Q.** And the “effect on growth of non-hematopoietic cell types” value [1]?
**A.** slightly affected

**Q.** And the “effect on IL-2 levels in the medium” value [2]?
**A.** no effect; also recorded: did not affect

**Q.** And the “number of OT1 (resting) cells” value (OT1 (resting) cells)?
**A.** 1148
